Results as given in ChEMBL document CHEMBL5724914, “Linking interpersonal differences in gut microbiota composition and drug biotransformation activity” (2024).

Columns and labels:
[1] = human gut metagenome, 24 h, 2 µM
[2] = human gut metagenome, 24 h, 2 µM; remark: listed apart in the source
[3] = human gut metagenome, 24 h, 2 µM; remark: listed apart in the source
[4] = The drug is tested on Z-012 corresponding to metagenome with ENA study accession number: PRJEB37062 and ENA sample accession number: ERS12561812 for biotransformation under anaerobic condition. The drug concentrations were measured over 9 timepoints collected between 0 and 24 hours of incubation by liquid-chromatography-coupled mass spectrometry (LC–MS); settings: 2 µM
[5] = The drug is tested on Z-020 corresponding to rabbit gut metagenome with ENA study accession number: PRJEB37062 and ENA sample accession number: ERS12561819 for biotransformation under anaerobic condition. The drug concentrations were measured over 9 timepoints collected between 0 and 24 hours of incubation by liquid-chromatography-coupled mass spectrometry (LC–MS); settings: 2 µM
[6] = human gut metagenome, 24 h, 2 µM; remark: listed apart in the source
[7] = human gut metagenome, 24 h, 2 µM; remark: listed apart in the source
[8] = human gut metagenome, 24 h, 2 µM; remark: listed apart in the source
[9] = The drug is tested on Z-023 corresponding to metagenome with ENA study accession number: PRJEB37062 and ENA sample accession number: ERS12561822 for biotransformation under anaerobic condition. The drug concentrations were measured over 9 timepoints collected between 0 and 24 hours of incubation by liquid-chromatography-coupled mass spectrometry (LC–MS); settings: 2 µM
[10] = human gut metagenome, 24 h, 2 µM; remark: listed apart in the source
[11] = human gut metagenome, 24 h, 2 µM; remark: listed apart in the source
[12] = The drug is tested on Z-021 corresponding to metagenome with ENA study accession number: PRJEB37062 and ENA sample accession number: ERS12561820 for biotransformation under anaerobic condition. The drug concentrations were measured over 9 timepoints collected between 0 and 24 hours of incubation by liquid-chromatography-coupled mass spectrometry (LC–MS); settings: 2 µM
[13] = human gut metagenome, 24 h, 2 µM; remark: listed apart in the source
[14] = human gut metagenome, 24 h, 2 µM; remark: listed apart in the source
[15] = human gut metagenome, 24 h, 2 µM; remark: listed apart in the source
[16] = The drug is tested on Z-005 corresponding to metagenome with ENA study accession number: PRJEB37062 and ENA sample accession number: ERS12561805 for biotransformation under anaerobic condition. The drug concentrations were measured over 9 timepoints collected between 0 and 24 hours of incubation by liquid-chromatography-coupled mass spectrometry (LC–MS); settings: 2 µM
[17] = The drug is tested on Z-019 corresponding to rat gut metagenome with ENA study accession number: PRJEB37062 and ENA sample accession number: ERS12561818 for biotransformation under anaerobic condition. The drug concentrations were measured over 9 timepoints collected between 0 and 24 hours of incubation by liquid-chromatography-coupled mass spectrometry (LC–MS); settings: 2 µM
[18] = human gut metagenome, 24 h, 2 µM; remark: listed apart in the source
[19] = The drug is tested on Z-006 corresponding to mouse gut metagenome with ENA study accession number: PRJEB37062 and ENA sample accession number: ERS12561806 for biotransformation under anaerobic condition. The drug concentrations were measured over 9 timepoints collected between 0 and 24 hours of incubation by liquid-chromatography-coupled mass spectrometry (LC–MS); settings: 2 µM
[20] = The drug is tested on Z-002 corresponding to rabbit gut metagenome with ENA study accession number: PRJEB37062 and ENA sample accession number: ERS12561802 for biotransformation under anaerobic condition. The drug concentrations were measured over 9 timepoints collected between 0 and 24 hours of incubation by liquid-chromatography-coupled mass spectrometry (LC–MS); settings: 2 µM
Further: call rule not given here.

SMILES | Bacterial Biotransformation [1] | Bacterial Biotransformation [2] | Bacterial Biotransformation [3] | Bacterial Biotransformation [4] | Bacterial Biotransformation [5] | Bacterial Biotransformation [6] | Bacterial Biotransformation [7] | Bacterial Biotransformation [8] | Bacterial Biotransformation [9] | Bacterial Biotransformation [10] | Bacterial Biotransformation [11] | Bacterial Biotransformation [12] | Bacterial Biotransformation [13] | Bacterial Biotransformation [14] | Bacterial Biotransformation [15] | Bacterial Biotransformation [16] | Bacterial Biotransformation [17] | Bacterial Biotransformation [18] | Bacterial Biotransformation [19] | Bacterial Biotransformation [20]
OCCOCCN1CCN(C2=Nc3ccccc3Sc3ccccc32)CC1 [QUETIAPINE] | Compound metabolized | Compound NOT metabolized | Compound metabolized | Compound NOT metabolized | Compound NOT metabolized | Compound metabolized | Compound metabolized | Compound metabolized | Compound NOT metabolized | Compound NOT metabolized | Compound NOT metabolized | Compound NOT metabolized | Compound metabolized | Compound metabolized | Compound metabolized | Compound NOT metabolized | Compound NOT metabolized | Compound metabolized | Compound NOT metabolized | Compound metabolized
CCC(=O)NCC[C@@H]1CCc2ccc3c(c21)CCO3 [RAMELTEON] | Compound metabolized | Compound metabolized | Compound metabolized | Compound metabolized | Compound metabolized | Compound metabolized | Compound metabolized | Compound NOT metabolized | Compound metabolized | Compound metabolized | Compound metabolized | Compound metabolized | Compound metabolized | Compound NOT metabolized | Compound metabolized | Compound NOT metabolized | Compound NOT metabolized | Compound metabolized | Compound metabolized | Compound metabolized
CNC(=C[N+](=O)[O-])NCCSCc1ccc(CN(C)C)o1 [RANITIDINE] | Compound NOT metabolized | Compound NOT metabolized | Compound NOT metabolized | Compound metabolized | Compound metabolized | Compound NOT metabolized | Compound NOT metabolized | Compound NOT metabolized | Compound metabolized | Compound metabolized | Compound NOT metabolized | Compound NOT metabolized | Compound NOT metabolized | Compound metabolized | Compound metabolized | Compound NOT metabolized | Compound metabolized | Compound metabolized | Compound metabolized | Compound metabolized

The remaining lines, values ahead:

Bacterial Biotransformation [1] | Bacterial Biotransformation [2] | Bacterial Biotransformation [3] | Bacterial Biotransformation [4] | Bacterial Biotransformation [5] | Bacterial Biotransformation [6] | Bacterial Biotransformation [7] | Bacterial Biotransformation [8] | Bacterial Biotransformation [9] | Bacterial Biotransformation [10] | Bacterial Biotransformation [11] | Bacterial Biotransformation [12] | Bacterial Biotransformation [13] | Bacterial Biotransformation [14] | Bacterial Biotransformation [15] | Bacterial Biotransformation [16] | Bacterial Biotransformation [17] | Bacterial Biotransformation [18] | Bacterial Biotransformation [19] | Bacterial Biotransformation [20] | SMILES
Compound metabolized | Compound metabolized | Compound metabolized | Compound NOT metabolized | Compound NOT metabolized | Compound metabolized | Compound NOT metabolized | Compound NOT metabolized | Compound metabolized | Compound metabolized | Compound NOT metabolized | Compound metabolized | Compound metabolized | Compound metabolized | Compound metabolized | Compound NOT metabolized | Compound NOT metabolized | Compound metabolized | Compound NOT metabolized | Compound NOT metabolized | COC(=O)[C@H]1[C@H]2C[C@@H]3c4[nH]c5cc(OC)ccc5c4CCN3C[C@H]2C[C@@H](OC(=O)c2cc(OC)c(OC)c(OC)c2)[C@@H]1OC [RESERPINE]
Compound NOT metabolized | Compound NOT metabolized | Compound metabolized | Compound metabolized | Compound metabolized | Compound metabolized | Compound metabolized | Compound metabolized | Compound metabolized | Compound metabolized | Compound NOT metabolized | Compound metabolized | Compound metabolized | Compound metabolized | Compound metabolized | Compound metabolized | Compound NOT metabolized | Compound metabolized | Compound NOT metabolized | Compound metabolized | Nc1nc2ccc(OC(F)(F)F)cc2s1 [RILUZOLE]
Compound metabolized | Compound NOT metabolized | Compound metabolized | Compound metabolized | Compound metabolized | Compound metabolized | Compound metabolized | Compound metabolized | Compound metabolized | Compound metabolized | Compound NOT metabolized | Compound NOT metabolized | Compound metabolized | Compound metabolized | Compound metabolized | Compound metabolized | Compound NOT metabolized | Compound metabolized | Compound metabolized | Compound metabolized | CC(C)c1nc(CN(C)C(=O)N[C@H](C(=O)N[C@@H](Cc2ccccc2)C[C@H](O)[C@H](Cc2ccccc2)NC(=O)OCc2cncs2)C(C)C)cs1 [RITONAVIR]
